According to patent US20060160818A1, “Ocular hypotensive agent” (priority 2003, published 2006):
Where a name gives a salt, the structure may show the parent alone.

Tested on: ocular tension
Assay: Ocular tension-reducing activity by administration to anterior chamber
Format: in vivo, rabbit
Conditions: overall conclusion from Examples 1 to 4
Experimental: Test solutions 1 to 3 were prepared as mentioned below. […] Non-white 5 male rabbits were used. Ocular tension was measured under topically anesthetizing the corneal surface with 0.4% oxybuprocaine hydrochloride by using an air impression electronic tonometer (by Japan Alcon Company). The rabbit was fitted in a cylinder, after topically anesthetizing the corneal surface with 0.4% oxybuprocaine hydrochloride, and the test solution 10 μl was injected via cornea in anterior chamber of one eye with an injection needle (30G). To the other eye as a control eye, in the same way as mentioned above, a physiological saline was injected. Ocular tension just before and after injection of the test solution or the physiological saline was measured in accordance with the same method as mentioned above. […] Ocular tension just before and after injection of the test solution and the physiological saline was measured in accordance with the same method as mentioned in Example 1.

| Compound | ocular tension-reducing activity (summary in words) |
| --- | --- |
| O=C1[C@H]2CCCC[C@H]2C(=O)N1CCCCN1CCN(c2nsc3ccccc23)CC1 [perospirone hydrochloride hydrate] | have ocular tension-reducing activity |
| O=C(O)CC(O)(CC(=O)O)C(=O)O.O=C1[C@@H]2[C@@H]3CC[C@@H](C3)[C@@H]2C(=O)N1CCCCN1CCN(c2ncccn2)CC1 [tandospirone citrate] | have ocular tension-reducing activity |
